Results as given in US7189731B2, “Substituted 7-azaquinazoline compounds useful as p38 kinase inhibitors” (Roche Palo Alto LLC, priority 2003, dated 2007).

What was measured:
[1] = molecular target: T1, p38 MAP kinase (Homo sapiens, UniProt Q16539); experiment: Inhibition of p38 (MAP) Kinase-In Vitro Assay; format: biochemical; conditions: approximate p38 inhibitory activities; concentration causing 50% inhibition of the p38 enzyme; γ-33P-ATP transfer to MBP; read-out: IC50 μM (P38 MAP KINASE E-03)
T1 construct: made in house; host or cells: E. coli (co-expressed with SEK-1 and MEKK)
Method: The p-38 MAP kinase inhibitory activity of compounds of this invention in vitro was determined by measuring the transfer of the y-phosphate from γ-^33P-ATP by p38 kinase to Myelin Basic Protein (MBP), using the a minor modification of the method described in Ahn et al., J. Biol. Chem., Vol. 266 (7), 4220–4227 (1991).
The phosphorylated form of the recombinant p38 MAP kinase was expressed with SEK-1 and MEKK in E. Coli (see Khokhlatchev et al., J. Biol. Chem. Vol. 272(17), pp. 11057–11062 (1997)), and then purified by affinity chromatography using a Nickel column.
The phosphorylated p38 MAP kinase was diluted in kinase buffer (20 mM 3-(N-morpholino)propanesulfonic acid, pH 7.2, 25 mM β-glycerol phosphate, 5 mM ethylene glycol-bis(beta-aminoethyl ether)-N,N,N′,N′-tetraacetic acid, 1 mM sodium vanadate, 1 mM dithiothreitol, 40 mM magnesium chloride). Test compound dissolved in DMSO or only DMSO (control) was added, and the samples were incubated for 10 min. at 30° C. The kinase reaction was initiated by the addition of a substrate cocktail containing MBP and γ-^33P-ATP. After incubating for an additional 20 min. at 30° C., the reaction was terminated by adding 0.75% phosphoric acid. The phosphorylated MBP was then separated from the residual γ-^33P-ATP using a phosphocellulose membrane (Millipore, Bedfrod, Mass.) and quantitated using a scintillation counter (Packard, Meriden, Conn.).

T1 sequence (Q16539 whole entry): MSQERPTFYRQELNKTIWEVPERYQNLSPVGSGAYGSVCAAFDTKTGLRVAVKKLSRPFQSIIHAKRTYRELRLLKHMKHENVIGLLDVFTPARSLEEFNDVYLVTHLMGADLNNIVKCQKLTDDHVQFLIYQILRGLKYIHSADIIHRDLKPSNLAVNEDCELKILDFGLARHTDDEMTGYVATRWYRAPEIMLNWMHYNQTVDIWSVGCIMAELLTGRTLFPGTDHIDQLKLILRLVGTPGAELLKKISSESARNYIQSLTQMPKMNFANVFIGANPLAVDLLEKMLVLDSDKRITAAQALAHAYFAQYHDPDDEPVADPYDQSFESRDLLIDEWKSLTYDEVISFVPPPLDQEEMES

CC(C)Nc1ncc2cc(Oc3ccc(F)cc3F)ncc2n1 [Example 2, [6-(2,4-Difluoro-phenoxy)-pyrido[3,4-d]py-rimidin-2-yl]-iso-propyl-amine]
IC50 [1]: < 0.5 µM

CS(=O)(=O)N1CCC(Nc2ncc3cc(Oc4ccc(F)cc4F)ncc3n2)CC1 [Example 1, [6-(2,4-Difluoro-phenoxy)-pyrido[3,4-d]pyrimidin-2-yl]-(1-methanesulfonyl-piperidin-4-yl)-amine]
melting point: 209.9 to 211.9 °C | IC50 [1]: < 0.05 µM

Fc1ccc(Oc2cc3cnc(NC4CCOCC4)nc3cn2)c(F)c1 [Example 4, [6-(2,4-Difluoro-phenoxy)-pyrido[3,4-d]py-rimidin-2-yl]-(tet-rahydro-pyran-4-yl)-amine]
IC50 [1]: < 0.3 µM
